Experimental data reported in patent US5354861A, “2-(benzyl)-3-arylbenzofurans as antitumour and hypocholesterolemic agents” (National University of Singapore, priority 1992, dated 1994).
“And” between values parts separate entries of the source, which are not always exact repeats. Equal entries are not always repeated.

Key:
[1] = test system: antiestrogen-binding sites (AEBS); experiment: Competitive displacement of [3H]tamoxifen from AEBS in EL4 whole cells; details: 5 nM [3H]tamoxifen, competitor 50 nM-1000 nM, tamoxifen = 100, mean ± SEM of two experiments
Experimental: ^a Determined by competitive ligand binding assays using EL4 whole
cells as the source of AEBS. Cells were incubated with 5 nM [^3
unlabelled competing ligand (50 nM-1000 nM). The binding reaction was
where RBA50 is the concentration required to reduce bound [^3
competiting ligand). The data are the mean ± SEM of two experiments.

human breast carcinoma = details: clinical trials; prior art; cited from earlier work
estrogen receptor (ER) [2] = details: prior art, cited from earlier work
estrogen receptor (ER) [3] = target: T1, estrogen receptor (ER) (Homo sapiens, UniProt P03372); experiment: Competitive displacement of [3H]estradiol from ER in MCF7 whole cells; format: binding; details: 5 nM [3H]estradiol, hundredfold excess of test compound, mean ± SEM of two experiments, read-out: Bound [3H]estradiol (% of control)
T1 construct: ER present in an established human breast carcinoma-derivedcell line, MCF7; endogenous in cells; host or cells: MCF7 whole cells
T1 sequence (P03372 1-595): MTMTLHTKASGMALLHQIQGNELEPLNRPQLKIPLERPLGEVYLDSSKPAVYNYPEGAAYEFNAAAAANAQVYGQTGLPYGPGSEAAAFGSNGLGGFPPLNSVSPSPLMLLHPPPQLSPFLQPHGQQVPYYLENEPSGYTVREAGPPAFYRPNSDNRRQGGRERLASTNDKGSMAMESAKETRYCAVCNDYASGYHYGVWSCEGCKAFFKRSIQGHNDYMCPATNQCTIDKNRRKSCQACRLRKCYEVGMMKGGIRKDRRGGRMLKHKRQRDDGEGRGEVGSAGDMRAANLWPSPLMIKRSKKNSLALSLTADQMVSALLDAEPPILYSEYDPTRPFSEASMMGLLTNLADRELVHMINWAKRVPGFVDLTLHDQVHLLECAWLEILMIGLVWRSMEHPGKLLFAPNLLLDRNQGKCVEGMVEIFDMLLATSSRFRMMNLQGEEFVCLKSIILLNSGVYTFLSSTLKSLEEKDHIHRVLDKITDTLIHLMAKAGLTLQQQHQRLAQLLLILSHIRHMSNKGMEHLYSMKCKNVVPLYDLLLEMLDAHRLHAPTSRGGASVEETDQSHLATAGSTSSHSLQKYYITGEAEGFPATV
Experimental: ^a Determined by competitive ligand binding assays using MCF7 whole
cells as the receptor source. Cells were incubated with 5 nM [^3
H]estradiol in the absence or presence of a hundredfold excess of DES or
each test compound. The binding reaction was performed and bound [^3
H]estradiol quantitated as described in the experimental section.
^b Bound [^3 H]estradiol in the absence of unlabelled competing
ligand was set at 100%. The data are the mean ± SEM of two experiments

EL4 cells [4] = experiment: [3H]Thymidine incorporation (antiproliferative activity) by EL4 cells; format: cell-based; details: Mus musculus, 48 hours, mean ± SEM of two experiments, read-out: IC50 EL4 (inhibition of [3H]thymidine incorporation)
Experimental: (§1) After 48 hours, each well was pulsed with [^3 H]thymidine (New England Nuclear)(74 KBq/well, 0.02 ml/well) for 60 minutes. Macromolecular incorporation of [^3 H]thymidine was quantitated by harvesting cells on a Brandel harvester fitted with scintillant-coated glass microfibre filters (Ready Filters, Beckman).
(§2) [^3 H]Thymidine incorporation by MCF7 and RTx6 cells was determined by the same technique with the following modifications: (i) cells were plated at 4,500 cells/well (0.18 ml/well); (ii) compounds and [^3 H]thymidine (37 KBq/well, 0.02 ml/well) were added 24 hours after plating; (iii) cells were trypsinized (0.05 ml of 0.05%/0.53 mM EDTA/well) prior to harvesting.

MCF7 cells = experiment: [3H]Thymidine incorporation (antiproliferative activity) by MCF7 cells; format: cell-based; details: Homo sapiens, 48 hours, mean ± SEM of two experiments, read-out: IC50 MCF7 (inhibition of [3H]thymidine incorporation)
Experimental: as §1, §2

[5] = test system: cholesterol biosynthesis by EL4 cells; experiment: De novo cholesterol biosynthesis from [3H]acetate by EL4 cells; format: cell-based; details: for % total radioactivity incorporated as cholesterol, experiment I / % total radioactivity incorporated as cholesterol, experiment II: single determinations of triplicate; for % total radioactivity incorporated as cholesterol, Mean: two experiments in triplicate
Experimental: (§3) De novo synthesis of cholesterol by EL4 cells from [^3 H]acetic acid, sodium salt (Amersham) (103 GBq/mmol) was quantitated using [4-^14 C]cholesterol (Amersham) (2.04 GBq/mmol) as internal standard by the method of Ho et al., J.Exp.Med.(1977) 145:1531-1549). Each determination was performed in triplicate, each consisting of 0.8 ml of a cell suspension (2×10^7 EL4 cells/ml) incubated with [^3 H]acetate (0.25 mM) and the test compound (0.1 ml, 10^-6 M-10^-4 M) for 5 or 48 hours at 37° C.
^a EL4 cells (20 × 10^6 cells/ml in well) were incubated
with 0.25 mM [^3 H]acetate in the absence or presence of 2 (10^-6
^b EL4 cells (20 × 10^6 cells/ml in well) were incubated
with 0.25 mM [^3 H] acetate in the absence or presence of 2 (10^-
with 0.25 mM [^3 H]acetate in the absence or presence of 4 (10^-4

[6] = Cell viability of EL4 cells by trypan blue exclusion; format: cell-based; details: mouse, el4 cells, trypan blue exclusion
Experimental: (§4) Cell counts were performed manually using a Neubauer hemocytometer. Cell viability was assessed by trypan blue exclusion. The table below (Table HI) is a summary
as §3
(§5) ^e Cell viability was estimated by trypan blue exclusion.
(§6) ^d Cell viability was estimated by trypan blue exclusion.

EL4 cells [7] = experiment: as above; format: cell-based; details: compound 2, 5 hours
Experimental: as §4, §3, §5, §6

[8] = prior art; cited from earlier work
[9] = compound 2, concentration 10^-M [sic], 48 hours

## CC/C(=C(\c1ccccc1)c1ccc(OCCN(C)C)cc1)c1ccccc1 [1a (Tamoxifen), 1-[4-(2-dimethylaminoethoxy)phenyl]-1,2-diphenylbut1-(Z)-ene]
[1]
  RBA: 100
Human breast carcinoma
  adverse side effects (in words): low incidence of adverse side effects
  clinical efficacy as antiestrogen (in words): established its efficacy
Estrogen receptor (ER) [2]
  antagonist/agonist character (in words): partial antagonists/agonists

## COc1ccc2c(-c3ccc(OCCN(C)C)cc3)c(Cc3ccc(Cl)cc3)oc2c1 [Compound 1]
[1]
  RBA: 391 ± 195
Estrogen receptor (ER) [3]
  remaining activity at 0.5 µM: 98 ± 1%
EL4 cells [4]
  IC50: 0.95 ± 0.05 µM
MCF7 cells
  IC50: 5.025 ± 0.025 µM

## COc1ccc2c(-c3ccc(OCCN4CCCC4)cc3)c(Cc3ccc(Cl)cc3)oc2c1 [Compound 2, 2-(p-Chlorobenzyl)-3-[p-(2-pyrrolidinoethoxy)phenyl]-6-methoxybenzo[b]furan]
[1]
  RBA: 268 ± 92
EL4 cells [4]
  IC50: 0.475 ± 0.225 µM
MCF7 cells
  IC50: 2.3 ± 0.1 µM
[5]; as early as 5 hours after treatment
  inhibition of cholesterol biosynthesis (in words): significant inhibition of cholesterol biosynthesis
[5]; compound 2, 10^-6 M, 5 hours, p < 0.01, Student's t test
  % inhibition of cholesterol synthesis: 48%
[5]; compound 2, 10^-6 M, 5 hours
  % total radioactivity incorporated as cholesterol, experiment I: 0.13% and 0.10% and 0.12%
  % total radioactivity incorporated as cholesterol, experiment II: 0.11% and 0.12% and 0.14%
[5]; compound 2, 10^-6 M, 5 hours, control 0.23 ± 0.02
  % total radioactivity incorporated as cholesterol, Mean: 0.12 ± 0.01%
[5]; compound 2, concentration 10^-M [sic], 48 hours, p < 0.01, Student's t test
  % inhibition of cholesterol synthesis: 47%
[5]; [9]
  % total radioactivity incorporated as cholesterol, experiment I: 0.16% and 0.15% and 0.24%
  % total radioactivity incorporated as cholesterol, experiment II: 0.14% and 0.17%
[5]; compound 2, concentration 10^-M [sic], 48 hours, control 0.32 ± 0.02
  % total radioactivity incorporated as cholesterol, Mean: 0.17 ± 0.02%
[6]; compound 2, 10^-6 M, 5 hours, control 96
  viability at 5 h, 1 µM: 91%
[6]; compound 2, concentration 10^-M [sic], 48 hours, control 92
  viability at 48 h: 87%
EL4 cells [7]
  cell viability (in words): not associated with loss of cell viability

## COc1ccc2c(-c3ccc(OCCN4CCCCC4)cc3)c(Cc3ccc(Cl)cc3)oc2c1 [Compound 3, 2-(p-Chlorobenzyl)-3-[p-(2-piperidinoethoxy)phenyl]-6-methoxybenzo[b]furan]
[1]
  RBA: 605 ± 371
Estrogen receptor (ER) [3]
  remaining activity at 0.5 µM: 93.5 ± 0.5%
EL4 cells [4]
  IC50: 0.3 ± 0.15 µM
MCF7 cells
  IC50: 2.05 ± 0.05 µM

## COc1ccc2c(-c3ccc(OCCN4CCOCC4)cc3)c(Cc3ccc(Cl)cc3)oc2c1 [Compound 4]
[1]
  RBA: 1828 ± 446
Estrogen receptor (ER) [3]
  remaining activity at 0.5 µM: 104 ± 2.5%
EL4 cells [4]
  IC50: 0.335 ± 0.145 µM
MCF7 cells
  IC50: 6.5 ± 0.5 µM
[5]; compound 4, 10^-4 M, 5 hours, p < 0.05, Student's t test
  % inhibition of cholesterol synthesis: 56%
[5]; compound 4, 10^-4 M, 5 hours
  % total radioactivity incorporated as cholesterol, experiment I: 0.19% and 0.09% and 0.05%
  % total radioactivity incorporated as cholesterol, experiment II: 0.11% and 0.12%
[5]; compound 4, 10^-4 M, 5 hours, control 0.25 ± 0.02
  % total radioactivity incorporated as cholesterol, Mean: 0.11 ± 0.03%
[5]; compound 4 at higher concentration (Table V)
  incorporation of [3H]acetate into cholesterol (in words): decreased incorporation of [^3 H]acetate into cholesterol
[6]; compound 4, 10^-4 M, 5 hours, control 96
  viability at 5 h, 100 µM: 79%

## O=C(c1ccc(OCCN2CCCC2)cc1)c1c(-c2ccc(O)cc2)sc2cc(O)ccc12 [LY117018]
Estrogen receptor (ER) [2]
  antagonist/agonist character (in words): partial antagonists/agonists (like tamoxifen)
[8]
  duration of action in vivo (in words): shorter duration of action in vivo

## COc1ccc(C2=C(C(=O)c3ccc(OCCN4CCCC4)cc3)c3ccccc3CC2)cc1 [Trioxifene]
Human breast carcinoma
  clinical efficacy as antiestrogen (in words): an effective antiestrogen in clinical trials
Estrogen receptor (ER) [2]; compared with tamoxifen
  estrogenic activity (in words): possesses greater estrogenic activity than tamoxifen
